Experimental data published in US10174011B2, “Heterocyclic compounds, process for preparation of the same and use thereof” (SHANGHAI INSTITUTE OF MATERIA MEDICA, CHINESE ACADEMY OF …, priority 2014, dated 2019).
Where two headings read alike, the source gives them in different places.

Columns and labels:
[1] = tested on: PCP-induced hyperactivity in mice; test: In vivo efficacy test (PCP-induced high locomotor activity in mice); details: male ICR mice, oral administration 45 minutes before PCP 7 mg/kg i.p.; dose significantly reducing PCP-induced hyperactivity vs model group
Method: 5) In Vivo Efficacy Test (PCP-Induced High Locomotor Activity in Mice)
PCP solution was prepared in a suitable concentration for 7 mg/kg dosage with saline. […] Male ICR mice (18-22 g) were used as test animals. All the test mice were randomly divided into vehicle control group, model control group, positive control group, and treatment group(8 mice per group). Mice of each group were orally administered test compounds or vehicle. After 45 minutes PCP solution was administered (7 mg/kg) through intraperitoneal injection. The mice track after drug or saline administration was recorded and analyzed by the spontaneous, open-field video analysis system. […] The mice track was recorded and analyzed by the spontaneous, open-field video analysis system. The total distance in each group was calculate and expressed as mean+SD and statistical evaluation was performed by one way ANOVA.

[2] = biological target: human recombinant 5-HT1A receptor (Homo sapiens (Human), UniProt P08908); test: 5-HT1A receptor agonism activity test (inhibition of cAMP production, LANCE cAMP 384 Kit); assay type: cell-based; details: HEK293 cells expressing human recombinant 5-HT1A receptor; test concentration 0.1 nM-10000 nM; read-out: 5-HT1A receptor agonism (EC50, mol/L)
human recombinant 5-HT1A receptor, sequence (P08908 whole entry): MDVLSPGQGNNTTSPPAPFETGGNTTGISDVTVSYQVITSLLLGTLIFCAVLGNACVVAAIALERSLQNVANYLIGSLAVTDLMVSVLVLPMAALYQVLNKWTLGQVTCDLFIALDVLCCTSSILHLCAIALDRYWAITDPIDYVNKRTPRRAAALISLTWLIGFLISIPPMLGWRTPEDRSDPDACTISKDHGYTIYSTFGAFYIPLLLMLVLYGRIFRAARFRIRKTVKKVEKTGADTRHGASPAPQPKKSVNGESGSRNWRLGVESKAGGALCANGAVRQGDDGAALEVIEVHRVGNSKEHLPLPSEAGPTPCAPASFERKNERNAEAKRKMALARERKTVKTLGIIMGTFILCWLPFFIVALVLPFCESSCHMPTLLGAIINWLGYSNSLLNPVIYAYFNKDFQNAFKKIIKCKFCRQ
From the text: Pharmacological Test 1) 5-HT1A Receptor Agonism Activity Test

[3] = biological target: human recombinant 5-HT2A receptor (Homo sapiens (Human), UniProt P28223); test: 5-HT2A receptor antagonism activity test (FLIPR Calcium 5 Assay Kit); details: read-out: 5-HT2A receptor antagonism (IC50, mol/L)
human recombinant 5-HT2A receptor, sequence (P28223 whole entry): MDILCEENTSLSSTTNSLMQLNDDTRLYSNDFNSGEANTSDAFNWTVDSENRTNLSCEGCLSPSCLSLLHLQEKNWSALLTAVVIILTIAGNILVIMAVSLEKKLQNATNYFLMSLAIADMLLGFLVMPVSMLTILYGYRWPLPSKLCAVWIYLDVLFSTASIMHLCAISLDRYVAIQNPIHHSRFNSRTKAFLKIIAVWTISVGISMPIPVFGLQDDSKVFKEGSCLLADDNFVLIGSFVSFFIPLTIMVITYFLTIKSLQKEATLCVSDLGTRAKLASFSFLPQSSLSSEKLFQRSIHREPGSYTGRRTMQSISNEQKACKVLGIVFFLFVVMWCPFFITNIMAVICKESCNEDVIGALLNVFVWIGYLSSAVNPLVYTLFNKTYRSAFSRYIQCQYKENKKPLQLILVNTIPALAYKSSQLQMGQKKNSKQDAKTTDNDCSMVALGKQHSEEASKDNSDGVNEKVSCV

[4] = biological target: human recombinant D2 receptor (Homo sapiens (Human), UniProt P14416); test: D2 receptor antagonism activity test (inhibition of dopamine-induced decrease of cAMP production, LANCE cAMP 384 Kit); details: read-out: D2 receptor antagonism (IC50, mol/L), HEK293 cells expressing human recombinant D2 receptor, 0.1 nM-10000 nM
human recombinant D2 receptor, sequence (P14416 whole entry): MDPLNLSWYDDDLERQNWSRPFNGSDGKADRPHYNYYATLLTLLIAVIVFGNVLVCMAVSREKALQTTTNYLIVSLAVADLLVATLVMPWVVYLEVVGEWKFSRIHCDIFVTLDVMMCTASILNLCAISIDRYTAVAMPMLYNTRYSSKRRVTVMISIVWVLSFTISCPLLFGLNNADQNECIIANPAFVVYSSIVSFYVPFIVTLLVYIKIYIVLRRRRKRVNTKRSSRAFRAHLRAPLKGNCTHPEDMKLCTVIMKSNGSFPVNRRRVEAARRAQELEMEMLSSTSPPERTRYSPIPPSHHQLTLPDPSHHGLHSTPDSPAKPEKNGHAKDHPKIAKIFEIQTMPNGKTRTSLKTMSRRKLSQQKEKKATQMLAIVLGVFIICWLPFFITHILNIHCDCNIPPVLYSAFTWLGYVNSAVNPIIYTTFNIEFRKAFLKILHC

[5] = CHO-K1 cells expressing human recombinant 5-HT2A receptor, α-methyl-5-hydroxytryptamine 300 nM, 0.1 nM-10000 nM

Row | SMILES | Effective dose [1] | EC50 [2] | IC50 [3, 5] | IC50 [4] | IC50 [3]
1 | Cn1c(=O)[nH]c2cc(CCN3CCN(c4cccc5sccc45)CC3)ccc21 [Compound of example 88, 5-(2-(4-(benzo[b]thiophen-4-yl)piperazin-1-yl)ethyl)-1-methyl-1H-benzo[d]imidazol-2(3H)-one] | 1 mg/kg | 6.31 nM | 356 nM | 215 nM | 
2 | O=c1ccc2ccc(CCN3CCN(c4cc(F)cc5sccc45)CC3)cc2[nH]1 [Compound of example 102, 7-(2-(4-(6-fluorobenzo[b]thiophen-4-yl)piperazin-1-yl)ethyl)quinolin-2(1H)-one] | 3 mg/kg | 3.29 nM | 1900 nM | 106 nM | 
3 | O=C1Cc2cc(CCN3CCN(c4cccc5sc(F)cc45)CC3)ccc2N1 [Compound of example 79, 5-(2-(4-(2-fluorobenzo[b]thiophen-4-yl)piperazin-1-yl)ethyl)indolin-2-one] | 1 mg/kg | 0.77 nM |  | 3.87 nM | 16.8 nM
4 | O=c1ccc2ccc(CCCCN3CCN(c4cccc5sccc45)CC3)cc2[nH]1 [Compound of example 33, 7-(4-(4-(benzo[b]thiophen-4-yl)piperazin-1-yl)butyl)quinolin-2(1H)-one] | 1 mg/kg | 2.24 nM | 244 nM | 35.6 nM | 
5 | O=c1[nH]c2ccc(CCN3CCN(c4cccc5sccc45)CC3)cc2o1 [Compound of example 68, 6-(2-(4-(benzo[b]thiophen-4-yl)piperazin-1-yl)ethyl)benzo[d]oxazol-2(3H)-one] | 0.3 mg/kg |  |  |  | 4.82 nM
6 | O=C1CSc2ccc(CCN3CCN(c4cccc5sccc45)CC3)cc2N1 [Compound of example 31, 6-(2-(4-(benzo[b]thiophen-4-yl)piperazin-1-yl)ethyl)-2H-benzo[b][1,4]thiazin-3(4H)-one] | 1 mg/kg | 0.68 nM | 52.2 nM | 92.7 nM | 
7 | Cc1nc2ccc(CCN3CCN(c4cccc5sccc45)CC3)cc2c(=O)[nH]1 [Compound of example 80, 6-(2-(4-(benzo[b]thiophen-4-yl)piperazin-1-yl)ethyl)-2-methylquinazolin-4(3H)-one] | 1 mg/kg | 1.74 nM | 11.9 nM | 25.1 nM | 
8 | Cl.Cn1c(=O)n(C)c2cc(CCN3CCN(c4cccc5sccc45)CC3)ccc21 [Compound of example 87, 5-(2-(4-(benzo[b]thiophen-4-yl)piperazin-1-yl)ethyl)-1,3-dimethyl-1H-benzo[d]imidazol-2(3H)-one hydrochloride] | 1 mg/kg | 4.5 nM | 88 nM |  | 
9 | Cl.O=C1COc2ccc(CCN3CCN(c4cccc5sccc45)CC3)cc2N1 [Compound of example 30, 6-(2-(4-(benzo[b]thiophen-4-yl)piperazin-1-yl)ethyl)-2H-benzo[b][1,4]oxazin-3(4H)-one hydrochloride] | 0.3 mg/kg |  |  | 34.2 nM | 42.1 nM
10 | Cl.S=C1CCc2ccc(CCN3CCN(c4cccc5sccc45)CC3)cc2N1 [Compound of example 133, 7-(2-(4-(benzo[b]thiophen-4-yl)piperazin-1-yl)ethyl)-3,4-dihydroquinoline-2(1H)-thione hydrochloride] | 1 mg/kg |  |  | 10.9 nM | 
11 | Cc1nc2n(c(=O)c1CCN1CCN(c3cccc4sc(F)cc34)CC1)CCCC2O.Cl (stereo not drawn) [Compound of example 131, 3-(2-(4-(2-fluorobenzo[b]thiophen-4-yl)piperazin-1-yl)ethyl)-9-hydroxy-2-methyl-6,7,8,9-tetrahydro-4H-pyrido[1,2-a]pyrimidin-4-one hydrochloride] | 3 mg/kg | 26 nM |  |  | 51.3 nM
12 | Cl.O=c1ccc2ccc(CCN3CCN(c4cccc5sc(F)cc45)CC3)cc2[nH]1 [Compound of example 57, 7-(2-(4-(2-fluorobenzo[b]thiophen-4-yl)piperazin-1-yl)ethyl)quinolin-2(1H)-one hydrochloride] | 1 mg/kg |  |  | 8.4 nM | 
